Drawing on PubChem BioAssay AID256 (DTP/NCI, 2004), this text covers T/C for 19 molecules.

This assay deals with CD2F1 mice, L1210 leukemia ip, survival T/C. The assay can be described thus: NCI In Vivo Anticancer Drug Screen. Data for tumor model L1210 Leukemia (intraperitoneal) in CD2F1 (CDF1) mice. As to conditions: higher = longer survival. The method, boiled down:
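Implant tumor; dose compound or vehicle; measure endpoint in both groups; report treated divided by control.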

Where [1] appears, read: endpoint: mean survival time, dose: 12.5 mg/kg/injection, schedule: Q01DX009 (ip), vehicle: saline with Tween-80.
[2] abbreviates: endpoint: mean survival time, dose: 25.0 mg/kg/injection, schedule: Q01DX009 (ip), vehicle: saline with Tween-80.
The mark [3] stands for this setting: endpoint: mean survival time, dose: 50.0 mg/kg/injection, schedule: Q01DX009 (ip), vehicle: saline with Tween-80.
Where [4] appears, read: endpoint: mean survival time, dose: 100.0 mg/kg/injection, schedule: Q01DX009 (ip), vehicle: saline with Tween-80.
[5] abbreviates: endpoint: mean survival time, dose: 200.0 mg/kg/injection, schedule: Q01DX009 (ip), vehicle: saline with Tween-80.
Where [6] appears, read: endpoint: mean survival time, dose: 50.0 mg/kg/injection, schedule: Q01DX009 (ip), vehicle: Klucel (hydroxypropylcellulose) (HPC).
The mark [7] stands for this setting: endpoint: mean survival time, dose: 100.0 mg/kg/injection, schedule: Q01DX009 (ip), vehicle: Klucel (hydroxypropylcellulose) (HPC).
The mark [8] stands for this setting: endpoint: mean survival time, dose: 50.0 mg/kg/injection, schedule: Q04DX003 (ip), vehicle: saline.
Setting [9] is: endpoint: mean survival time, dose: 100.0 mg/kg/injection, schedule: Q01DX009 (ip), vehicle: saline.
Setting [10] is: endpoint: mean survival time, dose: 100.0 mg/kg/injection, schedule: Q04DX003 (ip), vehicle: saline.
Where [11] appears, read: endpoint: mean survival time, dose: 200.0 mg/kg/injection, schedule: Q01DX009 (ip), vehicle: saline.
Setting [12] is: endpoint: mean survival time, dose: 200.0 mg/kg/injection, schedule: Q04DX003 (ip), vehicle: saline.
[13] abbreviates: endpoint: mean survival time, dose: 400.0 mg/kg/injection, schedule: Q04DX003 (ip), vehicle: saline.
The mark [14] stands for this setting: endpoint: mean survival time, dose: 100.0 mg/kg/injection, schedule: Q01DX001 (ip), vehicle: saline.
The mark [15] stands for this setting: endpoint: mean survival time, dose: 200.0 mg/kg/injection, schedule: Q01DX001 (ip), vehicle: saline.
[16] abbreviates: endpoint: mean survival time, dose: 100.0 mg/kg/injection, schedule: Q04DX003 (ip), vehicle: saline with Tween-80.
The mark [17] stands for this setting: endpoint: mean survival time, dose: 200.0 mg/kg/injection, schedule: Q04DX003 (ip), vehicle: saline with Tween-80.
[18] abbreviates: endpoint: mean survival time, dose: 400.0 mg/kg/injection, schedule: Q04DX003 (ip), vehicle: saline with Tween-80.
The mark [19] stands for this setting: endpoint: mean survival time, dose: 400.0 mg/kg/injection, schedule: Q01DX009 (ip), vehicle: saline with Tween-80.

Each structure is given as a SMILES string. “And” between values parts separate entries of the source, which are not always exact repeats. Equal entries are not always repeated. Toxic doses and inconclusive results are not listed. Non-standard residues stand in square brackets, D forms with d. Residues, ends and D or L forms follow the SMILES beside them. *: point of attachment. Cbz = O=C(OCc1ccccc1)*; Nva = CCC[CH](N)C(=O)O

Consider `CN1C(=O)NC(c2ccc(Cl)cc2)(c2ccc(Cl)cc2)C1=O`, for which the T/C was 93 % of control (endpoint: mean survival time, dose: 12.5 mg/kg/injection, schedule: Q01DX009 (ip), vehicle: distilled water + Tween-80); 97 % of control under setting [1]; 95 % of control (endpoint: mean survival time, dose: 25.0 mg/kg/injection, schedule: Q01DX009 (ip), vehicle: distilled water + Tween-80); 101 % of control under setting [2]; 103 % of control (endpoint: mean survival time, dose: 50.0 mg/kg/injection, schedule: Q01DX009 (ip), vehicle: distilled water + Tween-80); 101 % of control under setting [3]. Moreover, the T/C was 98 % of control (endpoint: mean survival time, dose: 100.0 mg/kg/injection, schedule: Q01DX009 (ip), vehicle: distilled water + Tween-80); 89 % of control under setting [4]; 98 % of control (endpoint: mean survival time, dose: 200.0 mg/kg/injection, schedule: Q01DX009 (ip), vehicle: distilled water + Tween-80); 91 % of control under setting [5].

On to `COc1cc(C(=O)CC2CCCCN2)ccc1O` (centres undefined), for which the T/C is, setting by setting: (endpoint: mean survival time, dose: 50.0 mg/kg/injection, schedule: Q01DX Z (ip), vehicle: saline) 98 % of control; (endpoint: mean survival time, dose: 100.0 mg/kg/injection, schedule: Q01DX Z (ip), vehicle: saline) 96 % of control; (endpoint: mean survival time, dose: 200.0 mg/kg/injection, schedule: Q01DX Z (ip), vehicle: saline) 100 % of control.

Consider `CNC(=O)OCc1c(COC(=O)NC)c(C)n(-c2ccc(OC)cc2)c1C`, for which the T/C reads like this: (endpoint: mean survival time, dose: 3.12 mg/kg/injection, schedule: Q01DX009 (ip), vehicle: Klucel (hydroxypropylcellulose) (HPC)) 101 % of control and 106 % of control; (endpoint: mean survival time, dose: 6.25 mg/kg/injection, schedule: Q01DX009 (ip), vehicle: Klucel (hydroxypropylcellulose) (HPC)) 101 % of control and 106 % of control; (endpoint: mean survival time, dose: 12.5 mg/kg/injection, schedule: Q01DX009 (ip), vehicle: Klucel (hydroxypropylcellulose) (HPC)) 113 % of control and 102 % of control; (endpoint: mean survival time, dose: 25.0 mg/kg/injection, schedule: Q01DX009 (ip), vehicle: Klucel (hydroxypropylcellulose) (HPC)) 121 % of control and 98 % of control; under setting [6], 116 % of control and 121 % of control; under setting [7], 87 % of control.

Consider `OC1(c2ccccc2)CN(Cc2ccccc2)CCO1` (centres undefined), for which the T/C (endpoint: mean survival time, dose: 50.0 mg/kg/injection, schedule: Q01DX009 (ip), vehicle: saline) was 104 % of control; the T/C under setting [8] was 93 % of control; the T/C under setting [9] is 102 % of control; the T/C under setting [10] was 101 % of control; the T/C under setting [11] was 98 % of control; the T/C under setting [12] was 102 % of control.

`c1nc[nH]n1`: the T/C runs as follows: under setting [9], 98 % of control; under setting [10], 95 % of control; under setting [11], 98 % of control; under setting [12], 97 % of control; (endpoint: mean survival time, dose: 400.0 mg/kg/injection, schedule: Q01DX009 (ip), vehicle: saline) 93 % of control; under setting [13], 100 % of control.

Take `NC(=S)N/N=C/c1cc([N+](=O)[O-])ccc1O`: the T/C is 113 % of control under setting [6]; 97 % of control under setting [7]; 101 % of control (endpoint: mean survival time, dose: 200.0 mg/kg/injection, schedule: Q01DX009 (ip), vehicle: Klucel (hydroxypropylcellulose) (HPC)).

On to `CC(=O)CC(C)=O`, for which the T/C reads like this: under setting [10], 103 % of control; under setting [12], 94 % of control; under setting [13], 100 % of control.

`CC(C)CC(C)COC(=O)c1c(Cl)c(Cl)c(Cl)c(Cl)c1C(=O)O` (centres undefined): the T/C reads like this: under setting [14], 90 % of control; under setting [15], 90 % of control.

Turning to `O=S(=O)(/N=C/c1ccccc1)c1ccc(Cl)cc1`, the T/C runs as follows: under setting [3], 100 % of control; under setting [4], 107 % of control.

Consider `CCN=c1cc2oc3cc(NCC)c(C)cc3c(-c3ccccc3C(=O)OCC)c-2cc1C`, for which the T/C was 101 % of control (endpoint: mean survival time, dose: 2.5 mg/kg/injection, schedule: Q04DX003 (ip), vehicle: saline); 109 % of control (endpoint: mean survival time, dose: 5.0 mg/kg/injection, schedule: Q04DX003 (ip), vehicle: saline); 90 % of control and 102 % of control (endpoint: mean survival time, dose: 10.0 mg/kg/injection, schedule: Q04DX003 (ip), vehicle: saline).

For `CN1CC2(Cc3ccccc3)c3ccccc3NC2(NC(=O)CCl)C1=O` (centres undefined), the T/C by setting is: (endpoint: mean survival time, dose: 25.0 mg/kg/injection, schedule: Q04DX002 (ip), vehicle: saline with Tween-80) 87 % of control; (endpoint: mean survival time, dose: 50.0 mg/kg/injection, schedule: Q04DX002 (ip), vehicle: saline with Tween-80) 95 % of control; (endpoint: mean survival time, dose: 100.0 mg/kg/injection, schedule: Q04DX002 (ip), vehicle: saline with Tween-80) 91 % of control; (endpoint: mean survival time, dose: 200.0 mg/kg/injection, schedule: Q01DX001 (ip), vehicle: saline with Tween-80) 92 % of control; (endpoint: mean survival time, dose: 200.0 mg/kg/injection, schedule: Q04DX002 (ip), vehicle: saline with Tween-80) 89 % of control; (endpoint: mean survival time, dose: 400.0 mg/kg/injection, schedule: Q01DX001 (ip), vehicle: saline with Tween-80) 96 % of control.

Take `Cn1nnc2c(C(N)=O)ncn2c1=O`: the T/C runs as follows: (endpoint: median survival time, dose: 6.25 mg/kg/injection, schedule: Q01DX009 (ip), vehicle: saline with Tween-80) 111 % of control; (endpoint: median survival time, dose: 12.5 mg/kg/injection, schedule: Q01DX009 (ip), vehicle: saline with Tween-80) 122 % of control; (endpoint: median survival time, dose: 25.0 mg/kg/injection, schedule: Q01DX009 (ip), vehicle: saline with Tween-80) 151 % of control; (endpoint: median survival time, dose: 50.0 mg/kg/injection, schedule: Q01DX009 (ip), vehicle: saline with Tween-80) 159 % of control and 168 % of control; (endpoint: median survival time, dose: 100.0 mg/kg/injection, schedule: Q01DX009 (ip), vehicle: saline with Tween-80) 182 % of control and 193 % of control; (endpoint: median survival time, dose: 200.0 mg/kg/injection, schedule: Q01DX009 (ip), vehicle: saline with Tween-80) 121 % of control and 93 % of control.

For `CC(=O)n1c(COS(C)(=O)=O)nc2ccccc21`, the T/C reads like this: (endpoint: mean survival time, dose: 25.0 mg/kg/injection, schedule: Q01DX001 (ip), vehicle: carboxymethylcellulose (CMC)) 105 % of control; (endpoint: mean survival time, dose: 50.0 mg/kg/injection, schedule: Q01DX001 (ip), vehicle: carboxymethylcellulose (CMC)) 103 % of control.

`CC1CC(C)(C)C(C[NH-])C1[NH-].[Cl][Pt+2][Cl]` (centres undefined): the T/C was 115 % of control (endpoint: mean survival time, dose: 3.12 mg/kg/injection, schedule: Q04DX003 (ip), vehicle: saline); 261 % of control under setting [8]; 158 % of control and 211 % of control under setting [10]; 94 % of control under setting [12].

On to `CCCCCC(O)CCCCC`, for which the T/C is, setting by setting: under setting [16], 98 % of control; under setting [17], 94 % of control; under setting [18], 98 % of control.

`CCCC(NC(=O)C(C)NC(=O)OCc1ccccc1)C(N)=O` (stereo not drawn) (Cbz-Ala-[Nva]-NH2; configuration not given here): the T/C runs as follows: under setting [4], 90 % of control; under setting [5], 92 % of control; under setting [19], 92 % of control.

For the molecule `CCCSc1ccccc1`, the T/C under setting [14] was 100 % of control and the T/C under setting [15] was 102 % of control.

As for `CN1C(=O)C(=Cc2ccc(O)cc2)C(=O)N(C)C1=O`, the T/C under setting [1] is 96 % of control and 100 % of control; the T/C under setting [2] is 102 % of control and 107 % of control; the T/C under setting [3] was 100 % of control and 108 % of control; the T/C under setting [4] is 104 % of control and 111 % of control; the T/C under setting [5] was 102 % of control and 106 % of control; the T/C under setting [19] was 106 % of control and 111 % of control.

Regarding `CC/C=C(\CC(=O)OCC)C(=O)OCC`, the T/C by setting is: under setting [16], 102 % of control; under setting [17], 106 % of control; under setting [18], 101 % of control.
